Consider 3 molecules from patent publication US12162866B1, “Crystal form of pyrazolyl-amino-pyrimidinyl derivative, and preparation method therefor and use thereof” (LYNK PHARMACEUTICALS CO., LTD., priority 2023, dated 2024).

Structures are written as SMILES. In brackets after ≈: the same amount, converted by molar mass.

The conditions of data set [1]: phase II and phase III, treatment of AD; cited from earlier work.
Data set [2] is described as follows: press testing (crystal transformation under pressure). It is filed as physicochemical. Conditions: 10 Mpa, 5 min.
The target of data set [3] is JAK1 (Homo sapiens, UniProt P23458). Briefly: migration detection kinase assay, JAK1. It counts as biochemical.
Sequence of JAK1 (P23458 whole entry): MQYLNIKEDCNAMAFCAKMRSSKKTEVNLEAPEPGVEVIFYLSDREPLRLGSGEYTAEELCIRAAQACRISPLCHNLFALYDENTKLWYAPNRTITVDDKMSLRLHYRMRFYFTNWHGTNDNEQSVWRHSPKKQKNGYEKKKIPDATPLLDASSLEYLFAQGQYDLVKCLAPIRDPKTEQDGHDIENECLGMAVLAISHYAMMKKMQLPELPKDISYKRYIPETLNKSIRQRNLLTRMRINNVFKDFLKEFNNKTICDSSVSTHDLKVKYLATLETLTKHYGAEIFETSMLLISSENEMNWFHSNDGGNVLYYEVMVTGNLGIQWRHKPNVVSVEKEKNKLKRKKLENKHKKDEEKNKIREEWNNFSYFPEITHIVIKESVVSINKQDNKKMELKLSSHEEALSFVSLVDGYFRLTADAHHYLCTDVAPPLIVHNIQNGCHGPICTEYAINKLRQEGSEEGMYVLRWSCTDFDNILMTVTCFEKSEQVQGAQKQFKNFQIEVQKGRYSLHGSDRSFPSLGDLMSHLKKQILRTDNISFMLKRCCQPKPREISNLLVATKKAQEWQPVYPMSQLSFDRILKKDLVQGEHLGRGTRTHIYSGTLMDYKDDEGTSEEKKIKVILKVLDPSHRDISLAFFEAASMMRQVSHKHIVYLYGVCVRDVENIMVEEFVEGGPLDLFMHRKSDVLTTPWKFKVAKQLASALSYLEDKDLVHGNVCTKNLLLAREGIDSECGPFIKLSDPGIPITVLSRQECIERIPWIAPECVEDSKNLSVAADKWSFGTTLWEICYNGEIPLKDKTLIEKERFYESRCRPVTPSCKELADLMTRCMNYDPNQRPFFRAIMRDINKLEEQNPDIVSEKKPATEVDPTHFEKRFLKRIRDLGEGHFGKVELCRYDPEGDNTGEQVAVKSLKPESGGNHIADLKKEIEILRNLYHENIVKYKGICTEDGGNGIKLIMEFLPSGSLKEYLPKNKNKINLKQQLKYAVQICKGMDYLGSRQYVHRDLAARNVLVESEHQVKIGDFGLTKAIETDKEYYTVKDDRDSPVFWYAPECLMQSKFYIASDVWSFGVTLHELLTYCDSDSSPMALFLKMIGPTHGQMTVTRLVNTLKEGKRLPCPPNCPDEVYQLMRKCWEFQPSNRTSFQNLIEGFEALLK
Data set [4] is described as follows: stability investigation (influencing factor, accelerated, intermediate, long term). It is filed as physicochemical.
Data set [5] in a line: dynamic solubility in simulated gastrointestinal fluid. It is filed as physicochemical. Conditions: for solubility at 1 h / solubility at 4 h / solubility at 24 h: 37° C.; for XRPD of remaining solid: after 24 h. The protocol:
After 24 h, the pH of the suspension was determined. The remaining suspension was centrifuged, and the remaining solid was subjected to XRPD characterization.

A short description of data set [6]: simulated wet grinding. Conditions: 3 min. It is filed as physicochemical.
In data set [7] the target is JAK2 (Homo sapiens, UniProt O60674). Briefly: migration detection kinase assay, JAK2.
Sequence of JAK2 (O60674 whole entry): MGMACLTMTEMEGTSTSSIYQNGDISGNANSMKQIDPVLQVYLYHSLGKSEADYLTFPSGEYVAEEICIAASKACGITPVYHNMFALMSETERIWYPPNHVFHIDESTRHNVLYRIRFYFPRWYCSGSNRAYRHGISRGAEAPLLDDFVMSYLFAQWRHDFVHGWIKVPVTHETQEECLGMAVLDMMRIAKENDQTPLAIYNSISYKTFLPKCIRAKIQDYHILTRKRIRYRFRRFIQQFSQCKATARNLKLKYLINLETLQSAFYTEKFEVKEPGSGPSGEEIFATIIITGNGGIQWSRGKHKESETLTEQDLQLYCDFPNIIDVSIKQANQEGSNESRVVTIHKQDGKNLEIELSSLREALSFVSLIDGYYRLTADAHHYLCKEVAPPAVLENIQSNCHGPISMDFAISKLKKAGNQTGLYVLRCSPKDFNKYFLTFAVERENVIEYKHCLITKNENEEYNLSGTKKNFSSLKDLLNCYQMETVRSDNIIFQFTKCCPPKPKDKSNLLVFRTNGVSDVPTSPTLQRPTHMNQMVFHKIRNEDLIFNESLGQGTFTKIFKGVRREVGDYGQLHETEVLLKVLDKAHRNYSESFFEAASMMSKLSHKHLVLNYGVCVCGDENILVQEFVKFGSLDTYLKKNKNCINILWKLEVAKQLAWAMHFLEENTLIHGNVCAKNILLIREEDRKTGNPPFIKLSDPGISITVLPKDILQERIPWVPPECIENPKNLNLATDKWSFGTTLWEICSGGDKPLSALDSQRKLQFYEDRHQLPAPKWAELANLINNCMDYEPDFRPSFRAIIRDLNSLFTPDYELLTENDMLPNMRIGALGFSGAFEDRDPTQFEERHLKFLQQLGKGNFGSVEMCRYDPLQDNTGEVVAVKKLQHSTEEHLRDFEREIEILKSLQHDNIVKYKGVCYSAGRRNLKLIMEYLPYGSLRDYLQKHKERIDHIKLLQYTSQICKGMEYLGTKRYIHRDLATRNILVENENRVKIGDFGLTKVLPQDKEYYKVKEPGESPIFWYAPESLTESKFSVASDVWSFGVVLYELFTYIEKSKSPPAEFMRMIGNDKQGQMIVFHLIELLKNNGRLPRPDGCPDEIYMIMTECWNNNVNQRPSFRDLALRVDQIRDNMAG
Data set [8] addresses T1, JAK3 (Homo sapiens, UniProt P52333).
T1 sequence (P52333 1-1124): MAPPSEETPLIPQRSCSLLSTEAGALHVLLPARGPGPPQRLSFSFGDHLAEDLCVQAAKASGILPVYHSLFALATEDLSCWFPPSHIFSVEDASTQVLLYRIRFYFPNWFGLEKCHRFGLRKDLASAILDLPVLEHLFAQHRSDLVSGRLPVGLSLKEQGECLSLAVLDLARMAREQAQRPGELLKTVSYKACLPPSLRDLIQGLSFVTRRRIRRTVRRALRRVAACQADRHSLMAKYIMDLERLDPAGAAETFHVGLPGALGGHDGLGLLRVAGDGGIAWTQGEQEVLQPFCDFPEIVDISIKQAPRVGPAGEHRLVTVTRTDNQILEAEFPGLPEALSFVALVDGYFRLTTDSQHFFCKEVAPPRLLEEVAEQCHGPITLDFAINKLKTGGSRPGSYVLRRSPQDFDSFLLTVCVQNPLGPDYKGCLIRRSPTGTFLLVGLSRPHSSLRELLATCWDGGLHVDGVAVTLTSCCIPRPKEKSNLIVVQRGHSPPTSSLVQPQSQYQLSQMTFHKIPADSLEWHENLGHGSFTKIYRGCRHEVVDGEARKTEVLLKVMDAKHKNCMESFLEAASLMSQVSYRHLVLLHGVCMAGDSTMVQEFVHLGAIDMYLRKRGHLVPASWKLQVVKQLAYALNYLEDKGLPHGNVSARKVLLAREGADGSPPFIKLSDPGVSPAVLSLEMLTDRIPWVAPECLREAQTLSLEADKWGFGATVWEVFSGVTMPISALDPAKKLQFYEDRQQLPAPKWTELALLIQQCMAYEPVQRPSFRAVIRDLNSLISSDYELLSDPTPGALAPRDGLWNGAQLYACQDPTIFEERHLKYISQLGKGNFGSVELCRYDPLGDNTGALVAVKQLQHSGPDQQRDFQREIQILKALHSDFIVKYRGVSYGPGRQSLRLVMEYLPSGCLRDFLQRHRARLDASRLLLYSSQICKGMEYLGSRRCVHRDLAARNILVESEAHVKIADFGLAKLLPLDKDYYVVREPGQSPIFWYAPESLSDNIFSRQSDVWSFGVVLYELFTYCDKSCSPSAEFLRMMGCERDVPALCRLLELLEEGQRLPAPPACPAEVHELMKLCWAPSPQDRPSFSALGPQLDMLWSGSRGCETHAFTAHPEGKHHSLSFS
The experiment in a line: migration detection kinase assay, JAK3. It is filed as biochemical. Conditions: 1 mM ATP.

Data set [9] is described as follows: simulated dry grinding. It is filed as physicochemical. Conditions: dry grinding for 3 min.
Data set [10] has as its target TYK2 (Homo sapiens, UniProt P29597). Briefly: migration detection kinase assay, TYK2. It counts as biochemical.
Data set [11] is described as follows: water activity experiment at 25° C. Conditions: for XRPD result: 25° C. It counts as physicochemical. The text has this: The resulting solid was filtered and subjected to XRPD characterization.
Data set [12] in a line: hygroscopicity by DVS. It is filed as physicochemical.
Data set [13] has as its system keratinocytes. Briefly: proliferation of keratinocytes. Conditions: preclinical study. It is filed as cell-based.
Data set [14] has as its system p-STAT signaling pathway. Briefly: p-STAT signaling pathway induced by cytokines. Conditions: in vivo and in vitro.
Where [15] appears, read: fassif, thermodynamic from solid, simulated pre-meal intestinal fluid.
Where [16] appears, read: fessif, thermodynamic from solid, simulated postprandial intestinal fluid.
Setting [17] is: simulated gastric fluid, thermodynamic from solid, simulated gastric juice.

Sequence of TYK2 (P29597 whole entry): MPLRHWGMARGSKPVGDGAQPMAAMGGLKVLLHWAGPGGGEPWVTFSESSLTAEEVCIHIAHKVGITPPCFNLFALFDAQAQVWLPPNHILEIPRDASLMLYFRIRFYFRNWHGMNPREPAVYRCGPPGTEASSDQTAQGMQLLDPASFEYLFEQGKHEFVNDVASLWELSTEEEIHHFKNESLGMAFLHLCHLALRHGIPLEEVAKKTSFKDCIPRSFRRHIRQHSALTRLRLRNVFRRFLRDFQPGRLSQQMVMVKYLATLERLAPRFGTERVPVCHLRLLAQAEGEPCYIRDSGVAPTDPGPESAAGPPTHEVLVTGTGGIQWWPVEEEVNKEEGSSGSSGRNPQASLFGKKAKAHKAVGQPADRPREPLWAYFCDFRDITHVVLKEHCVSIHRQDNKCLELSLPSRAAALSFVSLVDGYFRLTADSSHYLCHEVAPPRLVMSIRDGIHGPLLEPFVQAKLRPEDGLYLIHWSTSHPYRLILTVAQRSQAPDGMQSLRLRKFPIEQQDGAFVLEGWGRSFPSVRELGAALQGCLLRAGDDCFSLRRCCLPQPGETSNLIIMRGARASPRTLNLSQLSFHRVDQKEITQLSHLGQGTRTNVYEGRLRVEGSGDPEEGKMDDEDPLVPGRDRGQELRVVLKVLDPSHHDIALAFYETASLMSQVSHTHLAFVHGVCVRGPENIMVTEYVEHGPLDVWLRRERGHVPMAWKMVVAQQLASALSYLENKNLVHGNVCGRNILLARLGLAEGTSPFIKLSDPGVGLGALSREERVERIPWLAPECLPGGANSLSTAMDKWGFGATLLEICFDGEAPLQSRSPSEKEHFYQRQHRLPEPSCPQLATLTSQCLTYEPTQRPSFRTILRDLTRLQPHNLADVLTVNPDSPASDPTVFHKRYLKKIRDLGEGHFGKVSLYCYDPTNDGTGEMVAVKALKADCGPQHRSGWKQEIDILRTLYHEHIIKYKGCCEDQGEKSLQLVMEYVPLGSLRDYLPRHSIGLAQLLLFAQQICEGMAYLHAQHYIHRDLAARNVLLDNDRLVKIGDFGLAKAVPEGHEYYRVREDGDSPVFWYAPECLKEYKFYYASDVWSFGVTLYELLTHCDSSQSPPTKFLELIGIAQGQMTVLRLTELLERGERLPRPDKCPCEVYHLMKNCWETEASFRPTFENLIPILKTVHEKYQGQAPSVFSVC

Regarding `N#CC[C@H](C1CCCC1)n1cc(-c2ncnc3[nH]ccc23)cn1` [Ruxolitinib], in data set [1], the tolerability entry is given as “well tolerated”.
For `Cc1cnc(Nc2cnn(C3CC(C)(C)OC(C)(C)C3)c2)nc1-c1ccc(C(=O)NCC#N)cc1` [crystal form I], in [2], the XRPD after pressing result is “Crystal form I”. In addition, the “change of crystal form after pressing” value in data set [2] is on record as “The crystal form is not changed,”. The IC50 (commonly the midpoint of a concentration-inhibition curve) in data set [3] (1 mM ATP) is 10 nM; in data set [7], less than 0.51 nM; in data set [8], 275 nM; in data set [10] (1 mM ATP), 1 nM. Further, the “stability: appearance, related substances, assay, moisture, crystal form, content, microbial limit” value in data set [4] (accelerated condition 40° C.±2° C./75%±5% RH, 6 months) is given as “microbial limit were not changed”; in data set [4] (long-term condition 25° C.±2° C./60%±5% RH, 18 months), “microbial limit were not changed”. Also, the “Conclusion on crystal form” value is listed as “keeps stable” in data set [4] (accelerated, intermediate condition and long term tests); “keeps stable” in data set [4] (influencing factor test: high temperature, high humidity, illumination). In addition, the “stability: appearance, related substances, assay, moisture, crystal form, content” value in data set [4] (high humidity of 92.5% RH, 30 days) is “not changed”; in [4] (high temperature of 60° C., 30 days) it was “not changed”; in data set [4] (illumination of 1×ICH (1.2×10^6 Lux·hr, 200 w·hr/m^2)) it was “not changed”. For the same molecule, the results for the solubility at 1 h in data set [5] (setting [15]), in data set [5] (setting [16]) and in [5] (setting [17]) were 100 µg/mL (≈ 212 µM), 389 µg/mL (≈ 822 µM) and 97.4 µg/mL (≈ 206 µM), respectively. The solubility (usually the dissolved amount per volume that the medium holds) at 4 h in data set [5] (setting [15]) is 111 µg/mL (≈ 234 µM); in data set [5] (setting [16]) it was 474 µg/mL (≈ 1000 µM); in data set [5] (setting [17]), 92.3 µg/mL (≈ 195 µM). Moreover, the solubility at 24 h was 120 µg/mL (≈ 253 µM) in data set [5] (setting [15]), 627 µg/mL (≈ 1320 µM) in [5] (setting [16]) and 102 µg/mL (≈ 215 µM) in data set [5] (setting [17]). The “XRPD of remaining solid” value in data set [5] (simulated gastric juice), in data set [5] (simulated postprandial intestinal fluid) and in data set [5] (simulated pre-meal intestinal fluid) was “Crystal form I” throughout. Also, the solubility in data set [5] (simulated gastrointestinal fluid, 37 °C, fassgf or other biorelevant, thermodynamic from solid, summary statement) was greater than 8 µg/mL. Besides, the “pH after 24 h” value is 2.1 (simulated in data set [5] (suspension in simulated gastric juice), 5.1 (simulated in data set [5] (suspension in simulated postprandial intestinal fluid) and 6.6 (simulated in data set [5] (suspension in simulated pre-meal intestinal fluid). In addition, the “XRPD after wet grinding” value in data set [6] (Ethanol) and in [6] (Water) was “Crystal form I” each time. For the same molecule, the “change of crystal form after wet grinding” value in data set [6] (Ethanol) was “The crystal form is not changed, and”; in data set [6] (Water) it was “The crystal form is not changed, and”. Moreover, the “change of crystallinity after wet grinding” value in data set [6] (Ethanol) and in [6] (Water) was “the crystallinity is slightly reduced” throughout. For the same molecule, in data set [9], the “change of crystal form after dry grinding” value is “The crystal form is not changed, and”. In addition, the “change of crystallinity after dry grinding” value in data set [9] is listed as “the crystallinity is slightly reduced”. For the same molecule, the XRPD result in data set [11] (Acetone (a.w. = 0), 10 days) is “Crystal form I”; in [11] (Acetone (a.w. = 0), 22 days) it was “Crystal form I”; in data set [11] (Acetone/water 36:64 (a.w. = 0.9), 12 days), “Crystal form I”; in data set [11] (Acetone/water 60.4:39.6 (a.w. = 0.8), 12 days) it was “Crystal form I”; in [11] (Acetone/water 75.8:24.2 (a.w. = 0.7), 12 days) it was “Crystal form I”; in [11] (Acetone/water 91:9 (a.w. = 0.6), 10 days) it was “Crystal form I”. Besides, the XRPD result in data set [11] (Acetone/water 91:9 (a.w. = 0.6), 22 days) is reported as “Crystal form I”; in data set [11] (Acetone/water 94:6 (a.w. = 0.5), 10 days), “Crystal form I”; in data set [11] (Acetone/water 94:6 (a.w. = 0.5), 22 days), “Crystal form I”; in data set [11] (Acetone/water 97:3 (a.w. = 0.3), 10 days), “Crystal form I”; in [11] (Acetone/water 97:3 (a.w. = 0.3), 22 days) it was “Crystal form I”; in [11] (Acetone/water 99:1 (a.w. = 0.1), 10 days) it was “Crystal form I”. Also, the XRPD result is “Crystal form I” in [11] (Acetone/water 99:1 (a.w. = 0.1), 22 days); “Crystal form I” in data set [11] (Water (a.w. = 1), 10 days); “Crystal form I” in [11] (Water (a.w. = 1), 22 days). For the same molecule, in data set [11] (up to 22 days, water activity range 1% to 100%), the “crystal form stability over water activity range” value is recorded as “not transformed into a hydrate or other crystal forms”. Also, the “hygroscopicity” value in data set [12] is on record as “no obvious hygroscopicity”. Besides, the “Hygroscopicity, weight gain (DVS)” value in data set [12] (under 95% RH) is “Weight gain of 0.9%”.
`Cc1cnc(Nc2cnn(C3CC(C)(C)OC(C)(C)C3)c2)nc1-c1ccc(C(=O)NCC#N)cc1` [LNK01004]: in data set [3] (preclinical study), the “inhibitory effect on JAK1” value was “strong inhibitory effect”. Further, the “inhibitory effect on JAK2” value in data set [7] (preclinical study) was “strong inhibitory effect”. Further, the “inhibition of proliferation of keratinocytes” value in data set [13] was “can also inhibit the proliferation of keratinocytes”. The “inhibition of p-STAT signaling pathway induced by multiple cytokines” value in data set [14] is given as “can inhibit p-STAT signaling pathway”. The “inhibitory effect on TYK2” value in data set [10] (preclinical study) was “strong inhibitory effect”.
